Experimental data reported in paper PMC4756048 (Clinical Pharmacokinetics, 2015).
Read-outs that look alike come from different tables or passages of the source.

Assays:
CYP3A (intestinal) = settings: cited from earlier work
[1] = test system: CatA and carboxylesterase (CES) 1; settings: cited from earlier work
CYP1A2 = settings: caffeine; cited from earlier work
[2] = target: T1, sodium taurocholate cotransporting polypeptide (NTCP) (Homo sapiens, UniProt Q14973); assay: In vitro transporter inhibition; format: in vitro ADME; settings: data on file
T1 sequence (Q14973 1-349): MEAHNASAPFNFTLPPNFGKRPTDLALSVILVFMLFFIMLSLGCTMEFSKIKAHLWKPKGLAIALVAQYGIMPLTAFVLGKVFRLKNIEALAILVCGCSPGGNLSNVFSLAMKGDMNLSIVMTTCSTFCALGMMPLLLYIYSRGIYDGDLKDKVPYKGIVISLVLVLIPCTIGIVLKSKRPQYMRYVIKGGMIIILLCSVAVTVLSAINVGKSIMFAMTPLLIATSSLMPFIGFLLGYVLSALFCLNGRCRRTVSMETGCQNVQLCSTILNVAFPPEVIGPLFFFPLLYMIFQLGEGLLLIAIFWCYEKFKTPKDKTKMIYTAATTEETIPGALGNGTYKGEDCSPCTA

P-gp [3] = settings: in vitro; cited from earlier work
CYP3A [4] = settings: in vitro; cited from earlier work
CYP3A [5] = settings: in vitro; cited from earlier work; remark: listed apart in the source
[6] = test system: bile salt export pump (BSEP); settings: in vitro; cited from earlier work
CYP2D6 = settings: in vitro; cited from earlier work
MRP2 [7] = settings: in vitro; cited from earlier work
OATP1B3 [8] = settings: in vitro; data on file; cited from earlier work
MRP2 [9] = settings: in vitro; data on file; cited from earlier work
CYP2A6 = settings: in vitro; cited from earlier work
BCRP = settings: in vitro; cited from earlier work
[10] = test system: breast cancer resistance protein (BCRP); settings: in vitro; data on file; cited from earlier work
OATP1B3 [11] = settings: in vitro; cited from earlier work
[12] = cited from earlier work
CYP2C19 = settings: in vitro; cited from earlier work
OATP1B1 [13] = settings: in vitro; cited from earlier work
cathepsin A = target: T2, cathepsin A (Homo sapiens, UniProt P10619); assay: In vitro cathepsin A inhibition; format: biochemical; settings: data on file
T2 sequence (P10619 29-480): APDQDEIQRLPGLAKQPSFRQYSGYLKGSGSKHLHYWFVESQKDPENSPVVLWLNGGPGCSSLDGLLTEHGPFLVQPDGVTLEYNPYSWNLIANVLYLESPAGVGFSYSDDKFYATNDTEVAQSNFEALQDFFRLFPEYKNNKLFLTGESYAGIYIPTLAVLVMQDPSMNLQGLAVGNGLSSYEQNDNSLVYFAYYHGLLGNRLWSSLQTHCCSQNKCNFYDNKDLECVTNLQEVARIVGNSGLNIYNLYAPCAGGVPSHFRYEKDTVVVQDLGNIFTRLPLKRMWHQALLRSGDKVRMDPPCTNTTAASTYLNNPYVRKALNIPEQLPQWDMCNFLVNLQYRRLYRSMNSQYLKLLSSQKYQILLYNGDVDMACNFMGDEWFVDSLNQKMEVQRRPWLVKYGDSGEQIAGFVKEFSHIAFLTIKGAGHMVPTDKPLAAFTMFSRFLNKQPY

[14] = cited from earlier work; remark: listed apart in the source
plasma proteins = settings: largely to albumin; cited from earlier work
CYP2C8 = settings: in vitro; cited from earlier work
[15] = format: in vivo, human; settings: data on file
OATP1B1 [16] = settings: in vitro; cited from earlier work; remark: listed apart in the source
P-gp [17] = settings: in vitro; data on file; cited from earlier work
[18] = oral midazolam 0.075 mg/kg, simeprevir 150 mg, fed, 16 healthy subjects, least squares mean ratio (90 % CI)
[19] = simeprevir 150 mg once daily + erythromycin 500 mg three times daily, days 1–7, fed, 24 healthy subjects
[20] = simeprevir 200 mg once daily + ritonavir 100 mg twice daily, fed, 12 healthy male subjects
[21] = vs subjects with normal renal function
[22] = interim analysis, simeprevir 150 mg once daily
[23] = interim analysis, simeprevir 150 mg once daily, vs historical data on simeprevir alone

Cc1ncc2n1-c1ccc(Cl)cc1C(c1ccccc1F)=NC2 [Midazolam, midazolam]
AUClast ratio of probe with vs without simeprevir (CYP3A (intestinal); [18]): 1.45 (1.35–1.57) | Cmax ratio of probe with vs without simeprevir (CYP3A (intestinal); [18]): 1.31 (1.19–1.45) | increase in exposure with coadministration of simeprevir (CYP3A (intestinal); oral midazolam): 31%

CC(C)OC(=O)[C@H](C)N[P@](=O)(OC[C@H]1O[C@@H](n2ccc(=O)[nH]c2=O)[C@](C)(F)[C@@H]1O)Oc1ccccc1 [sofosbuvir]
conversion to metabolite GS-331007 [1]: > 90%

Cn1c(=O)c2c(ncn2C)n(C)c1=O [Caffeine, caffeine]
increase in exposure with coadministration of simeprevir (CYP1A2): 12%

COc1ccc2c(O[C@@H]3C[C@H]4C(=O)N[C@]5(C(=O)NS(=O)(=O)C6CC6)C[C@H]5/C=C\CCCCN(C)C(=O)[C@@H]4C3)cc(-c3nc(C(C)C)cs3)nc2c1C [simeprevir]
inhibition of NTCP [2]: inhibitor | inhibition of P-gp (P-gp [3]): inhibitor | inhibition of CYP3A (CYP3A [4]): weak inhibitor | substrate of CYP3A (CYP3A [5]): substrate | inhibition of BSEP [6]: inhibitor | inhibition of CYP2D6 (CYP2D6): moderate inhibitor | inhibition of MRP2 (MRP2 [7]): inhibitor | inhibition of OATP1B3 (OATP1B3 [8]): inhibitor | substrate of MRP2 (MRP2 [9]): substrate | inhibition of CYP2A6 (CYP2A6): moderate inhibitor | inhibition of BCRP (BCRP): inhibitor | substrate of BCRP [10]: substrate | hepatic uptake by OATP1B3 (OATP1B3 [11]): mediate hepatic uptake | fold increase in mean AUC24h of simeprevir with erythromycin [12, 19]: 7.47 fold | fold increase in mean Cmax of simeprevir with erythromycin [12, 19]: 4.53 fold | fold increase in mean Cmin of simeprevir with erythromycin [12, 19]: 12.74 fold | fold increase in AUC24h of simeprevir with ritonavir, multiple doses [12, 20]: 7.18 fold | fold increase in Cmax of simeprevir with ritonavir, multiple doses [12, 20]: 4.70 fold | fold increase in Cmin of simeprevir with ritonavir, multiple doses [12, 20]: 14.35 fold | inhibition of CYP2C19 (CYP2C19): weak inhibitor | inhibition of OATP1B1 (OATP1B1 [13]): inhibitor | inhibition of cathepsin A (cathepsin A): no clinically relevant inhibition | mean terminal elimination half-life ([14]; HCV-infected subjects (n = 6)): approximately 41 h | increase in AUC with food ([14]; high-fat/high-caloric breakfast): 61% | AUC in subjects infected with HCV relative to uninfected subjects ([14]; human, in vivo): 2–3 times | increase in exposure in moderate hepatic impairment ([14]; non-HCV-infected subjects vs matched healthy controls): approximately 2 fold | increase in exposure in severe compared with moderate hepatic impairment ([14]; non-HCV-infected subjects): approximately 2 fold | increase in AUC with food ([14]; normal-caloric breakfast): 69% | time to steady state ([14]; once-daily dosing): 7 days | time of maximum plasma concentration (Cmax) postdose ([14]; oral): 4 to 6 h | dose proportionality of Cmax and AUC ([14]; repeated doses between 75 mg and 200 mg daily): more than dose proportionally | mean terminal elimination half-life ([14]; subjects without HCV infection): 10 to 13 h | increase in AUC24h in severe renal impairment [14, 21]: 62% | increase in Cmax in severe renal impairment [14, 21]: 34% | bound to plasma proteins (plasma proteins): > 99.9% | inhibition of CYP2C8 (CYP2C8): moderate inhibitor | AUC24h of simeprevir, historical data in the absence of cyclosporine [15]: 45,202 ng·h/mL | Cmax of simeprevir, historical data in the absence of cyclosporine [15]: 3235 ng/mL | AUC24h of simeprevir in subjects receiving cyclosporine ([15]; day 14, simeprevir 150 mg once daily): 262,618 ng·h/mL | Cmax of simeprevir in subjects receiving cyclosporine ([15]; day 14, simeprevir 150 mg once daily, n = 9): 15,321 ng/mL | AUC24h of simeprevir in subjects receiving tacrolimus [15, 22]: 83,808 ng·h/mL | Cmax of simeprevir in subjects receiving tacrolimus [15, 22]: 5780 ng/mL | increase in AUC24h of simeprevir with tacrolimus [15, 23]: 85% | increase in Cmax of simeprevir with tacrolimus [15, 23]: 79% | hepatic uptake by OATP1B1 (OATP1B1 [16]): mediate hepatic uptake | substrate of P-gp (P-gp [17]): substrate
